# In PMC10247784, “Physiological activation of human and mouse bitter taste receptors by bile acids” (Communications Biology, 2023):
# “And” between values parts separate entries of the source, which are not always exact repeats. Identical values can stand only once.
# Biological target: T1, human TAS2R4 (Homo sapiens, UniProt Q9NYW5)
# T1 construct: expressed in transfected cells; host or cells: HEK293T-Gα16gust44
# T1 sequence (Q9NYW5 1-299): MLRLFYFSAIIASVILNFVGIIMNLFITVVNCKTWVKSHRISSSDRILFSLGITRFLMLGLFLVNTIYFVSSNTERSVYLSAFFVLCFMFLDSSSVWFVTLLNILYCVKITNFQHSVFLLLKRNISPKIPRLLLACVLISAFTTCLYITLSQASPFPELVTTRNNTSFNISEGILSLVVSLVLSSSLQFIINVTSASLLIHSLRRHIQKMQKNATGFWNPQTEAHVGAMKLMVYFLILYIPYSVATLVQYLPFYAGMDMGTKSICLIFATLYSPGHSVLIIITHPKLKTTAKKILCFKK
# Assay: Calcium imaging assay (FLIPR), HEK293T-Gα16gust44 cells transfected with human TAS2R4
# Format: cell-based
# Method in brief: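 Bile acids from DMSO stocks are applied to dye-loaded cells one day after transient receptor transfection, and calcium-dependent fluorescence is recorded. Maximum signal is standardized to basal and normalized to buffer-only wells, with empty-vector signal subtracted.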
smiles,measurement,setting,value
"C[C@H](CCC(=O)NCC(=O)O)[C@H]1CC[C@H]2[C@@H]3[C@H](O)C[C@@H]4C[C@H](O)CC[C@]4(C)[C@H]3C[C@H](O)[C@]12C [Glycocholic Acid, glycocholic acid]",Efficacy = maximal amplitude (ΔF/F),"TAS2R4, bile acids, mean",0.1626
same,"Efficacy (maximal amplitude ΔF/F), individual data points","TAS2R4, bile acids, single replicates, listed as GCA",0.1367 and 0.1786 and 0.1725
same,Δ F/F,"TAS2R4, conc. 0,01 mM",0.01565
same,Δ F/F,"TAS2R4, conc. 0,1 mM",0.106
same,Δ F/F,"TAS2R4, conc. 0,03 mM",0.03923
same,Δ F/F,"TAS2R4, conc. 0,3 mM",0.1626
same,Δ F/F,"TAS2R4, conc. 0,001 mM",0.006443
same,Δ F/F,"TAS2R4, conc. 0,003 mM",0.006613
same,"RLU, fluorescence trace",Time (s) 0,0 RLU
same,"RLU, fluorescence trace",Time (s) 2,4.14 RLU
same,"RLU, fluorescence trace",Time (s) 4,-20.6032 RLU
same,"RLU, fluorescence trace",Time (s) 6,-25.8877 RLU
same,"RLU, fluorescence trace",Time (s) 8,-29.799 RLU
same,"RLU, fluorescence trace",Time (s) 12,-12.9106 RLU
same,"RLU, fluorescence trace",Time (s) 14,-6.673 RLU
same,"RLU, fluorescence trace",Time (s) 16,-18.2287 RLU
same,"RLU, fluorescence trace",Time (s) 18,-27.0676 RLU
same,"RLU, fluorescence trace","Time (s) 18.766 (TCA, TLCA: 18.782)",-34.2066 RLU
same,"RLU, fluorescence trace","Time (s) 20.781 (TCA, TLCA: 20.782)",-42.9373 RLU
same,"RLU, fluorescence trace","Time (s) 22.781 (TCA, TLCA: 22.782)",15.1075 RLU
same,"RLU, fluorescence trace","Time (s) 24.781 (TCA, TLCA: 24.782)",91.6518 RLU
same,"RLU, fluorescence trace","Time (s) 26.781 (TCA, TLCA: 26.782)",179.573 RLU
same,"RLU, fluorescence trace","Time (s) 28.781 (TCA, TLCA: 28.782)",304.257 RLU
same,"RLU, fluorescence trace","Time (s) 30.781 (TCA, TLCA: 30.782)",388.704 RLU
same,"RLU, fluorescence trace","Time (s) 32.781 (TCA, TLCA: 32.782)",524.444 RLU
same,"RLU, fluorescence trace","Time (s) 34.781 (TCA, TLCA: 34.782)",591.908 RLU
same,"RLU, fluorescence trace","Time (s) 36.781 (TCA, TLCA: 36.782)",664.761 RLU
same,"RLU, fluorescence trace","Time (s) 38.781 (TCA, TLCA: 38.782)",747.083 RLU
same,"RLU, fluorescence trace","Time (s) 40.781 (TCA, TLCA: 40.782)",780.753 RLU
same,"RLU, fluorescence trace","Time (s) 42.781 (TCA, TLCA: 42.782)",820.227 RLU
same,"RLU, fluorescence trace","Time (s) 44.781 (TCA, TLCA: 44.782)",854.725 RLU
same,"RLU, fluorescence trace","Time (s) 46.781 (TCA, TLCA: 46.782)",885.437 RLU
same,"RLU, fluorescence trace","Time (s) 48.781 (TCA, TLCA: 48.782)",869.015 RLU
same,"RLU, fluorescence trace","Time (s) 50.781 (TCA, TLCA: 50.782)",904.393 RLU
same,"RLU, fluorescence trace","Time (s) 52.781 (TCA, TLCA: 52.782)",904.624 RLU
same,"RLU, fluorescence trace","Time (s) 54.781 (TCA, TLCA: 54.782)",934.879 RLU
same,"RLU, fluorescence trace","Time (s) 56.781 (TCA, TLCA: 56.782)",910.42 RLU
same,"RLU, fluorescence trace","Time (s) 58.781 (TCA, TLCA: 58.782)",920.415 RLU
same,"RLU, fluorescence trace","Time (s) 60.781 (TCA, TLCA: 60.782)",939.945 RLU
same,"RLU, fluorescence trace","Time (s) 62.781 (TCA, TLCA: 62.782)",894.354 RLU
same,"RLU, fluorescence trace","Time (s) 64.781 (TCA, TLCA: 64.782)",892.209 RLU
same,"RLU, fluorescence trace","Time (s) 66.781 (TCA, TLCA: 66.782)",883.058 RLU
same,"RLU, fluorescence trace","Time (s) 68.781 (TCA, TLCA: 68.782)",897.442 RLU
same,"RLU, fluorescence trace","Time (s) 70.781 (TCA, TLCA: 70.782)",864.365 RLU
same,"RLU, fluorescence trace","Time (s) 72.781 (TCA, TLCA: 72.782)",888.719 RLU
same,"RLU, fluorescence trace","Time (s) 74.781 (TCA, TLCA: 74.782)",833.342 RLU
same,"RLU, fluorescence trace","Time (s) 76.781 (TCA, TLCA: 76.782)",856.102 RLU
same,"RLU, fluorescence trace","Time (s) 78.781 (TCA, TLCA: 78.782)",820.296 RLU
same,"RLU, fluorescence trace","Time (s) 80.781 (TCA, TLCA: 80.782)",794.483 RLU
same,"RLU, fluorescence trace","Time (s) 82.781 (TCA, TLCA: 82.782)",818.87 RLU
same,"RLU, fluorescence trace","Time (s) 84.781 (TCA, TLCA: 84.782)",756.604 RLU
same,"RLU, fluorescence trace","Time (s) 86.781 (TCA, TLCA: 86.782)",753.892 RLU
same,"RLU, fluorescence trace","Time (s) 88.781 (TCA, TLCA: 88.782)",732.115 RLU
same,"RLU, fluorescence trace","Time (s) 90.781 (TCA, TLCA: 90.782)",726.989 RLU
same,"RLU, fluorescence trace","Time (s) 92.781 (TCA, TLCA: 92.782)",713.242 RLU
same,"RLU, fluorescence trace","Time (s) 94.781 (TCA, TLCA: 94.782)",703.281 RLU
same,"RLU, fluorescence trace","Time (s) 96.781 (TCA, TLCA: 96.782)",696.734 RLU
same,"RLU, fluorescence trace","Time (s) 98.781 (TCA, TLCA: 98.782)",653.577 RLU
same,"RLU, fluorescence trace","Time (s) 100.781 (TCA, TLCA: 100.782)",678.663 RLU
same,"RLU, fluorescence trace","Time (s) 102.781 (TCA, TLCA: 102.782)",623.965 RLU
same,"RLU, fluorescence trace","Time (s) 104.781 (TCA, TLCA: 104.782)",624.137 RLU
same,"RLU, fluorescence trace","Time (s) 106.781 (TCA, TLCA: 106.782)",630.047 RLU
same,"RLU, fluorescence trace","Time (s) 108.781 (TCA, TLCA: 108.782)",571.666 RLU
same,"RLU, fluorescence trace","Time (s) 110.781 (TCA, TLCA: 110.782)",598.289 RLU
same,"RLU, fluorescence trace","Time (s) 112.781 (TCA, TLCA: 112.782)",583.918 RLU
same,"RLU, fluorescence trace","Time (s) 114.781 (TCA, TLCA: 114.782)",556.25 RLU
same,"RLU, fluorescence trace","Time (s) 116.781 (TCA, TLCA: 116.782)",588.773 RLU
same,"RLU, fluorescence trace","Time (s) 118.781 (TCA, TLCA: 118.782)",548.501 RLU
same,"RLU, fluorescence trace","Time (s) 120.781 (TCA, TLCA: 120.782)",507.386 RLU
same,"RLU, fluorescence trace","Time (s) 122.781 (TCA, TLCA: 122.782)",507.852 RLU
same,"RLU, fluorescence trace","Time (s) 124.781 (TCA, TLCA: 124.782)",509.201 RLU
same,"RLU, fluorescence trace","Time (s) 126.781 (TCA, TLCA: 126.782)",489.381 RLU
same,"RLU, fluorescence trace","Time (s) 128.781 (TCA, TLCA: 128.782)",446.993 RLU
same,"RLU, fluorescence trace","Time (s) 130.781 (TCA, TLCA: 130.782)",463.894 RLU
same,"RLU, fluorescence trace","Time (s) 132.781 (TCA, TLCA: 132.782)",448.798 RLU
same,"RLU, fluorescence trace","Time (s) 134.781 (TCA, TLCA: 134.782)",427.428 RLU
same,"RLU, fluorescence trace","Time (s) 136.781 (TCA, TLCA: 136.782)",402.196 RLU
same,"RLU, fluorescence trace",Time (s) 137.547,379.772 RLU
same,"RLU, fluorescence trace",Time (s) 143.547,379.834 RLU
same,"RLU, fluorescence trace",Time (s) 149.547,308.948 RLU
same,"RLU, fluorescence trace",Time (s) 155.547,318.726 RLU
same,"RLU, fluorescence trace",Time (s) 161.547,303.241 RLU
same,"RLU, fluorescence trace",Time (s) 167.547,312.32 RLU
same,"RLU, fluorescence trace",Time (s) 173.547,281.168 RLU
same,"RLU, fluorescence trace",Time (s) 179.547,242.535 RLU
same,"RLU, fluorescence trace",Time (s) 185.547,225.911 RLU
same,"RLU, fluorescence trace",Time (s) 191.547,214.607 RLU
same,"RLU, fluorescence trace",Time (s) 197.547,221.087 RLU
same,"RLU, fluorescence trace",Time (s) 203.547,189.795 RLU
same,"RLU, fluorescence trace",Time (s) 209.547,203.53 RLU
same,"RLU, fluorescence trace",Time (s) 215.547,197.074 RLU
same,"RLU, fluorescence trace",Time (s) 221.547,173.704 RLU
same,"RLU, fluorescence trace",Time (s) 227.547,160.915 RLU
same,"RLU, fluorescence trace",Time (s) 233.547,142.108 RLU
same,"RLU, fluorescence trace",Time (s) 239.547,141.876 RLU
same,"RLU, fluorescence trace",Time (s) 245.547,156.883 RLU
same,"RLU, fluorescence trace",Time (s) 293.547,127.131 RLU
same,"RLU, fluorescence trace",Time (s) 299.547,134.948 RLU
same,"RLU, fluorescence trace",Time (s) 305.547,119.109 RLU
same,"RLU, fluorescence trace",Time (s) 311.547,130.712 RLU
same,"RLU, fluorescence trace",Time (s) 317.547,94.0562 RLU
same,"RLU, fluorescence trace",Time (s) 323.547,123.872 RLU
same,"RLU, fluorescence trace",Time (s) 329.547,117.665 RLU
same,"RLU, fluorescence trace",Time (s) 335.547,137.018 RLU
same,"RLU, fluorescence trace",Time (s) 341.547,127.876 RLU
same,"RLU, fluorescence trace",Time (s) 347.547,133.973 RLU
same,"RLU, fluorescence trace",Time (s) 353.547,116.889 RLU
same,"RLU, fluorescence trace",Time (s) 359.547,102.962 RLU
same,Activation threshold concentration TAS2R4,lowest concentration with significantly increased fluorescence vs empty vector (p < 0.01),30 µM
